Experimental findings from the supplement of paper PMC10307832 are described below.

Common to all, as to assay: relative viability (nuclei count vs DMSO), 5 days (fraction); higher = more cells survive
Compound in assay [1]: COC1=CC(c2cc3ccccc3[nH]2)=N/C1=C\c1[nH]c(C)cc1C [Obatoclax] + CC1(C)CCC(c2ccc(Cl)cc2)=C(CN2CCN(c3ccc(C(=O)NS(=O)(=O)c4ccc(N[C@H](CCN5CCOCC5)CSc5ccccc5)c(S(=O)(=O)C(F)(F)F)c4)cc3)CC2)C1 [Navitoclax] (partner 0.5 µM)
The method, boiled down: (§1)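 Medians of duplicate plates are given as relative viability. That measure is the nuclei count in treated wells divided by the count in vehicle wells. Counts were taken on 4× images of lung cancer cell lines in 1536-well plates, 5 days after pin-tool dosing the day after seeding with one drug alone or a fixed anchor-drug dose plus five library-drug doses (not always all listed) in √10 steps.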

Compound in assay [2]: COC1=CC(c2cc3ccccc3[nH]2)=N/C1=C\c1[nH]c(C)cc1C [Obatoclax] + Nc1ncn([C@H]2C[C@H](O)[C@@H](CO)O2)c(=O)n1 [Decitabine] (partner 2 µM)
The method, boiled down: as §1

Compound in assay [3]: COC1=CC(c2cc3ccccc3[nH]2)=N/C1=C\c1[nH]c(C)cc1C [Obatoclax] + CC(C)C[C@H](NC(=O)[C@H](Cc1ccccc1)NC(=O)c1cnccn1)B(O)O [Bortezomib] (partner 0.002 µM)
The method, boiled down:
as §1

Compound in assay [4]: CC(C)C[C@H](NC(=O)[C@H](Cc1ccccc1)NC(=O)c1cnccn1)B(O)O [Bortezomib] + C[C@]1(O)C[C@@H](c2nc(-c3ccc4ccc(-c5ccccc5)nc4c3)c3c(N)nccn32)C1 [Linsitinib] (partner 1 µM)
The method, boiled down:
as §1

Consider NCI-H1975, for which the relative viability was 1.18 in assay [1] (first compound 0.01 µM); 1.1 in assay [1] (first compound 0.03162 µM); 0.975 in assay [1] (first compound 0.1 µM); 0.943 in assay [1] (first compound 0.3162 µM); 1.01 in assay [1] (first compound 1 µM); 0.476 in assay [2] (first compound 0.01 µM). In addition, the relative viability was 0.365 in assay [2] (first compound 0.03162 µM); 0.322 in assay [2] (first compound 0.1 µM); 0.38 in assay [2] (first compound 0.3162 µM); 0.278 in assay [2] (first compound 1 µM); 0.357 in assay [3] (first compound 0.01 µM); 0.456 in assay [3] (first compound 0.03162 µM). Also, the relative viability was determined as 0.361 in assay [3] (first compound 0.1 µM); 0.49 in assay [3] (first compound 0.3162 µM); 0.253 in assay [3] (first compound 1 µM); 0.965 in assay [4] (first compound 0.0002 µM); 0.964 in assay [4] (first compound 0.000632 µM); 0.189 in assay [4] (first compound 0.002 µM). For the same cell line, the relative viability in assay [4] (first compound 0.006325 µM) turned out to be 0.144; in assay [4] (first compound 0.02 µM), 0.125.

As for COR-L 105, the relative viability in assay [1] (first compound 0.01 µM) was found to be 0.815; in assay [1] (first compound 0.03162 µM) it was 0.649; in assay [1] (first compound 0.1 µM), 0.792; in assay [1] (first compound 0.3162 µM), 0.741; in assay [1] (first compound 1 µM), 0.388; in assay [2] (first compound 0.01 µM), 0.68. In addition, the relative viability worked out at 0.665 in assay [2] (first compound 0.03162 µM); 0.634 in assay [2] (first compound 0.1 µM); 0.525 in assay [2] (first compound 0.3162 µM); 0.407 in assay [2] (first compound 1 µM); 0.989 in assay [3] (first compound 0.01 µM); 0.782 in assay [3] (first compound 0.03162 µM). The relative viability in assay [3] (first compound 0.1 µM) was 0.777; in assay [3] (first compound 0.3162 µM), 0.432; in assay [3] (first compound 1 µM), 0.335; in assay [4] (first compound 0.0002 µM), 0.848; in assay [4] (first compound 0.000632 µM), 0.99; in assay [4] (first compound 0.002 µM), 0.711. The relative viability came out at 0.293 in assay [4] (first compound 0.006325 µM) and 0.282 in assay [4] (first compound 0.02 µM).

As for EKVX, the relative viability in assay [1] (first compound 0.01 µM) stood at 0.86; in assay [1] (first compound 0.03162 µM) it was 0.618; in assay [1] (first compound 0.1 µM), 0.98; in assay [1] (first compound 0.3162 µM), 0.924; in assay [1] (first compound 1 µM), 0.922; in assay [2] (first compound 0.01 µM) it was 0.343. Besides, the relative viability in assay [2] (first compound 0.1 µM) is 0.313; in assay [2] (first compound 0.3162 µM), 0.368; in assay [2] (first compound 1 µM) it was 0.324; in assay [3] (first compound 0.01 µM), 1.05; in assay [3] (first compound 0.03162 µM) it was 1.01; in assay [3] (first compound 0.1 µM) it was 1.03. In addition, the relative viability in assay [3] (first compound 0.3162 µM) is 1.01; in assay [3] (first compound 1 µM), 1.13; in assay [4] (first compound 0.0002 µM), 1.01; in assay [4] (first compound 0.000632 µM), 0.936; in assay [4] (first compound 0.002 µM) it was 0.915; in assay [4] (first compound 0.006325 µM), 0.609. Further, the relative viability in assay [4] (first compound 0.02 µM) was determined as 0.0808.

NCI-H2009: the relative viability in assay [1] (first compound 0.01 µM) came out at 1.13; in assay [1] (first compound 0.03162 µM), 1.23; in assay [1] (first compound 0.1 µM), 1.15; in assay [1] (first compound 0.3162 µM), 1.17; in assay [1] (first compound 1 µM), 0.258; in assay [2] (first compound 0.01 µM), 0.371. The relative viability in assay [2] (first compound 0.03162 µM) was found to be 0.384; in assay [2] (first compound 0.1 µM), 0.358; in assay [2] (first compound 0.3162 µM), 0.305; in assay [2] (first compound 1 µM), 0.213; in assay [3] (first compound 0.01 µM), 1.01; in assay [3] (first compound 0.03162 µM), 1.12. Besides, the relative viability in assay [3] (first compound 0.1 µM) was 0.764; in assay [3] (first compound 0.3162 µM), 0.395; in assay [3] (first compound 1 µM), 0.203; in assay [4] (first compound 0.0002 µM), 1.12; in assay [4] (first compound 0.000632 µM) it was 1.22; in assay [4] (first compound 0.002 µM) it was 1.18. Also, the values for the relative viability in assay [4] (first compound 0.006325 µM) and in assay [4] (first compound 0.02 µM) were 0.0695 and 0.058, respectively.

Take NCI-H838: the relative viability in assay [1] (first compound 0.01 µM) was found to be 1.14; in assay [1] (first compound 0.03162 µM) it was 1.26; in assay [1] (first compound 0.1 µM), 1.03; in assay [1] (first compound 0.3162 µM), 0.776; in assay [1] (first compound 1 µM), 0.573; in assay [2] (first compound 0.01 µM), 0.471. Further, the relative viability in assay [2] (first compound 0.03162 µM) was found to be 0.412; in assay [2] (first compound 0.1 µM) it was 0.511; in assay [2] (first compound 0.3162 µM), 0.338; in assay [2] (first compound 1 µM), 0.32; in assay [3] (first compound 0.01 µM), 1.01; in assay [3] (first compound 0.03162 µM), 0.748. For the same cell line, the relative viability in assay [3] (first compound 0.1 µM) worked out at 0.495; in assay [3] (first compound 0.3162 µM), 0.754; in assay [3] (first compound 1 µM) it was 0.404; in assay [4] (first compound 0.0002 µM) it was 0.995; in assay [4] (first compound 0.000632 µM) it was 1.01; in assay [4] (first compound 0.002 µM) it was 0.962. Moreover, the relative viability in assay [4] (first compound 0.006325 µM) was 0.142; in assay [4] (first compound 0.02 µM), 0.145.

On to NCI-H2085, for which the relative viability in assay [1] (first compound 0.01 µM) worked out at 1.14; in assay [1] (first compound 0.03162 µM) it was 1.11; in assay [1] (first compound 0.1 µM), 1.13; in assay [1] (first compound 0.3162 µM), 0.704; in assay [1] (first compound 1 µM) it was 0.728; in assay [2] (first compound 0.01 µM), 0.531. Besides, the relative viability in assay [2] (first compound 0.03162 µM) stood at 0.484; in assay [2] (first compound 0.1 µM), 0.524; in assay [2] (first compound 0.3162 µM), 0.499; in assay [2] (first compound 1 µM), 0.472; in assay [3] (first compound 0.01 µM), 1.06; in assay [3] (first compound 0.03162 µM), 1.1. In addition, the relative viability in assay [3] (first compound 0.1 µM) came out at 0.93; in assay [3] (first compound 0.3162 µM), 0.88; in assay [3] (first compound 1 µM), 0.427; in assay [4] (first compound 0.0002 µM) it was 0.901; in assay [4] (first compound 0.000632 µM), 0.901; in assay [4] (first compound 0.002 µM), 0.726. The figures for the relative viability in assay [4] (first compound 0.006325 µM) and in assay [4] (first compound 0.02 µM) were 0.262 and 0.145, respectively.
